Results as given in paper PMC12603982 (Angewandte Chemie (International Ed. in English), 2025).
Like-named read-outs stand apart in the source and are kept apart here. Starred links: 1 amine or outer side, 2 acyl side, 3 side chain; linkers in the order of their positions; H or OH if unused. Positions of bridges follow the written chain, without caps; N, C: chain ends. Non-standard residues stand in square brackets, D forms with d. Residues, ends and D or L forms follow the SMILES beside them. Groups on a side chain read outwards from the residue. *: point of attachment. X3 = CCN1C(=CC=CC=CC2=[N+](CCCCCC(=O)*)c3ccc(S(=O)(=O)[O-])cc3C2(C)C)C(C)(C)c2cc(S(=O)(=O)O)ccc21; X1 = CCN1C(=CC=CC2=[N+](CCCCCC(=O)*)c3ccc(S(=O)(=O)O)cc3C2(C)C)C(C)(C)c2cc(S(=O)(=O)[O-])ccc21; X4 = CCN1C(=CC=CC2=[N+](CCCCCC(=O)*)c3ccc(S(=O)(=O)[O-])cc3C2(C)C)C(C)(C)c2cc(S(=O)(=O)O)ccc21; d(εLys) = N[C@H](CCCCN[*:1])C(=O)[*:2]; PEG5 = NCCOCCOCCOCCOCCOCCC(=O)O; Orn = NCCC[C@H](N)C(=O)O; Mpa = O=C(O)CCS

What was measured:
hOTR [1] = target: T1, hOTR (Homo sapiens, UniProt P30559); parameters: method as in PMID 8126695; conditions: cited from earlier work
T1 construct: expressed in transfected cells
T1 sequence (P30559 1-389): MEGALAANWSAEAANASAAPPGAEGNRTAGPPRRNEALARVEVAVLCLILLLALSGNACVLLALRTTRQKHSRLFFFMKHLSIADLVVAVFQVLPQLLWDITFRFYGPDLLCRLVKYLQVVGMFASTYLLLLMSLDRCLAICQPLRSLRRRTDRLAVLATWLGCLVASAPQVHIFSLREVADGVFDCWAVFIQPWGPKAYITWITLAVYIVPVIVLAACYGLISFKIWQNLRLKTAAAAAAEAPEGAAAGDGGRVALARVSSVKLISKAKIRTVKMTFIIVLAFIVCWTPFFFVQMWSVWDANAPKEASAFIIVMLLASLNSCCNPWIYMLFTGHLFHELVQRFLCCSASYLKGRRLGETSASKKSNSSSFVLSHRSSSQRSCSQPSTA

hOTR-GFP in HEK293 cells [2] = target: T2, hOTR-GFP in HEK293 cells (Homo sapiens, UniProt P30559); assay: hOTR-GFP internalization and tracer uptake, confocal microscopy after fixation/ICC; assay type: cell-based; parameters: expressed in transfected cells; conditions: for hOTR-GFP internalization / Tracer retention after ICC protocols: 100 nM; for Tracer retention after ICC protocols: 1 h stimulation, formaldehyde fixation, PBS washing; for Tracer signal after prolonged stimulation: 24 h treatment, post-fixation ICC
T2 sequence (P30559 1-389): T1 sequence (P30559 1-389)
Text: To validate the application scope of our tracers for biological systems and post‐hoc imaging, we used HEK293 cells stably overexpressing human OTR or V1aR, tagged with a C‐terminal fused green fluorescent protein to visualize receptor trafficking (hOTR‐GFP or hV1aR‐GFP, respectively).
subsequently washed with PBS and processed for immunocytochemistry.
Immunocytochemistry and imaging. Unspecific protein binding was quenched with 5% normal donkey serum
(Jackson ImmunoResearch), 2% bovine serum albumin (Sigma-Aldrich, Merck), and 0.2% Triton X-100 (Sigma-
Aldrich, Merck) in PBS. Next, cells were exposed to primary antibody cocktails containing FITC-conjugated goat-
anti-GF (1:2000, Sigma-Aldrich, Merck) and mouse pCREB (1:300, Sigma-Aldrich, Merck) in PBS with 2%
normal donkey serum, 0.1% BSA, and 0.2% Triton X-100 overnight at 4°C. After three PBS washing steps, wells
were incubated with secondary antibody cocktails (1:400, Jackson Immuno Research) containing suitable
were mounted with glycerol gelatin (Sigma-Aldrich, Merck) and imaged on a Zeiss LSM 780/880 confocal
microscope (Zeiss). Images were analyzed and equally contrasted for visualization with ZEN Pro (Zeiss) and

hOTR-GFP in HEK293 cells [3] = target: T2, hOTR-GFP in HEK293 cells; assay: Live single-particle tracking (TIRFM, uPAINT) of hOTR
Experimental: We first exposed hOTR‐GFP cells to 10 and 100 nM of tracer (11) during acquisition with a ZEISS Lattice SIM microscope (Movies S1 and S2). […] To further disentangle the dynamics of our tracer‐mediated OTR engagement and trafficking, we evaluated its applicability in single‐particle tracking (SPT) in living cells. We cultured HEK293 (parent cells) and HEK293 cells stably expressing hOTR‐GFP (HEK293‐hOTR‐GFP) and performed total internal reflection microscopy (TIRFM) SPT universal point accumulation imaging in nanoscale topography (uPAINT) following the addition of 1 nM of tracer (10). […] This concentration was selected to facilitate the detection and tracking of single molecules of the fluorescent agonist tracer following binding to hOTR at the plasma membrane by uPAINT. […] We first assessed the number of tracks (indicative of the number of single molecules detected/tracked). […] We quantified the mean squared displacement of each trajectory to calculate its apparent diffusion coefficient. The diffusion coefficient of each trajectory of the tracer bound to hOTR was plotted as a frequency distribution (Figure 7b2 ).
Live cell imaging. For 3D live cell imaging, attached and serum -starved HEK293-hOTR-GFP cells in 96-well
glass bottom plates were imaged on a ZEISS Lattice SIM Microscope using a 40x oil objective and SIM 2 post- […]

hOTR [4] = target: T1, hOTR; assay: Radioligand displacement and saturation binding, membranes of HEK293 cells stably expressing hOTR, [3H]-OT; conditions: [3H]-OT, mean ± SD, duplicates, at least three independent experiments
Experimental: (§1) Membrane preparation for radioligand assays. HEK293 cells were used for stable expression of GFP-tagged
(§2) human OTR, V1aR, V1bR, and V2R isoforms and transient expression of murine OTR, V1aR, V1bR, and V2R
(§3) isoforms. Cell culture work was performed under sterile conditions with DMEM high glucose containing 10%
(§4) FBS, and 50 U/mL P/S. Cells were cultured in 10 cm diameter cell culture dishes at 37°C in a humidified
(§5) atmosphere with 5% CO2, and cells were passaged at 70-90% confluency.
(§6) medium of stable cell lines at 0.5 mg/mL to sustain selection pressure, and cells were harvested at 90% confluency
(§7) for membrane preparation. For transient expression of murine receptors, 60% confluent wild-type HEK293 cells
(§8) were transfected using the jetPRIME transfection reagent according to the manufacturer’s protocol and harvested
(§9) 48 h post-transfection. For membrane preparation, cells were washed with ice-cold PBS pH 7.4, scraped into fresh
(§10) PBS on ice, and centrifuged at 4°C and 178 g for 10 min. The pellet was resuspended in a TRIS buffer solution
ice-cold water bath sonicator. The obtained solution was centrifuged for 20 min at 54,192 g and 4°C. The obtained
pellet was resuspended in TRIS buffer without protease inhibitors, homogenized with an ultrasonicator, aliquoted,
and stored at -80°C until further use. A BCA assay was used to determine the protein concentration of the
Radioligand displacement and saturation experiments. Assay solutions consisting of competing ligand,
radioligand, and membrane preparation were incubated for 1 h at 37°C. Standard binding buffer solution (50 mM
TRIS, 5 mM MgCl2, 0.1% BSA, pH 7.4) was used to prepare all dilutions; the final assay volume was 200 µL.
concentrations were 8 μg/vial for hOTR, 5 μg/vial for hV1aR, and 3 μg/vial for hV1bR and hV2R, respectively , and
4 μg/vial for mOTR, 1.5 μg/vial for m V1aR, 3 μg/vial for mV 1bR, and 10 μg/vial for mV 2R. To assess non-specific
Specific binding was determined by
subtraction of the non-specific binding from the total binding. In radioligand displacement experiments, semi -
logarithmically spaced concentrations of respective test ligands were applied to determine K i values based on
assessed Kd values of radiotracers and by fitting the data to a three -parameter logistic Hill equation and applying
the Cheng and Prusoff approximation. 10 In case of human receptors from stable cell lines, Kd and Bmax values were
In case of murine receptors from transient
was performed using GraphPad Prism (version 9.5.1) . After incubation, membranes were filtered and washed on
a Skatron Cell Harvester using polyethyleneimine -coated glass fiber filters (type B, soaked in 0.1% aqueous
1 mM MgCl2, pH 7.4, 4°C). The soaked filter pieces were transferred into counter vials, and 2 mL of scintillation
cocktail (LSC Universalcocktail) was added to each vial. After 1 h incubation at 25°C on a shaker, radioligand
concentration was determined using a Tri -Carb liquid scintillation analyzer.
response curves were obtained from radioligand displacement experiments of membrane preparations of HEK293
Values were normalized to the percentage
of maximum binding (i.e., no competing ligand present). Specific binding was obtained from the subtraction of
non-specific binding from total binding. K i values were derived from one-site-fitted competition binding curves.

[5] = tested on: CREB phosphorylation via hOTR-GFP; assay: In vitro phosphorylation assay (pCREB) in hOTR-GFP HEK293 cells; assay type: cell-based, human; conditions: range 1 nM to 1 µM
[6] = tested on: parent HEK293 cells lacking hOTR; conditions: 100 nM
[7] = target: hV1aR-GFP in HEK293 cells (Homo sapiens, UniProt P37288); assay: Tracer signal and internalization in hV1aR-GFP HEK293 cells post ICC; conditions: 100 nM
hV1aR-GFP in HEK293 cells, sequence (P37288 whole entry): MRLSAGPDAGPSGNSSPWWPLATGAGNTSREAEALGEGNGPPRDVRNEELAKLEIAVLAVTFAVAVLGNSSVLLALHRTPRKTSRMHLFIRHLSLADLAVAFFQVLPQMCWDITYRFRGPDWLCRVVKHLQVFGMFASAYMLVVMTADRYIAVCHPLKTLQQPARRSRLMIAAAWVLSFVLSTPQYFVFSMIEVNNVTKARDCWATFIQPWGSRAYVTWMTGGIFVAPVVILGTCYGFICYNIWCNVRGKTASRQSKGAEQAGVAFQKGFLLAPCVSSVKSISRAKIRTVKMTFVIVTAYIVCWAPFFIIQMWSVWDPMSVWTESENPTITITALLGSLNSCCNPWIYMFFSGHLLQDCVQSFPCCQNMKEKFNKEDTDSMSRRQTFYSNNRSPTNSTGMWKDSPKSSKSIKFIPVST

hV1bR = target: T3, hV1bR (Homo sapiens, UniProt P47901); assay: Radioligand displacement and saturation binding, membranes of HEK293 cells stably expressing hV1bR, [3H]-VP
T3 construct: expressed in transfected cells; membrane preparation
T3 sequence (P47901 1-424): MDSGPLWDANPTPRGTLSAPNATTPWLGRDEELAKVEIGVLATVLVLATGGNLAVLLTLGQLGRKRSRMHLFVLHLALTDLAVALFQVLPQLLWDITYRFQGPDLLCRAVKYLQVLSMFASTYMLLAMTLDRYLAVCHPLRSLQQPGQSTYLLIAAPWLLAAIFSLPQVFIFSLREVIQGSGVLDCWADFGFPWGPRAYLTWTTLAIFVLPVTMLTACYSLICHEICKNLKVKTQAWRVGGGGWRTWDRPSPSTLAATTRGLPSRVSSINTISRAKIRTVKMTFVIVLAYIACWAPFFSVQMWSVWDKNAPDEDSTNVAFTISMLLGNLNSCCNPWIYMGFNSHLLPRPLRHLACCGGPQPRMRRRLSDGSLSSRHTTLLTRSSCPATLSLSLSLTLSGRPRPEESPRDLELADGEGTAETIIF
Experimental: as §1, §2, §3, §4, §5, §6, §7, §8, §9, §10
(§11) ice-cold water bath sonicator. The obtained solution was centrifuged for 20 min at 54,192 g and 4°C. The obtained […]
Specific binding was determined by […]
(§12) assessed Kd values of radiotracers and by fitting the data to a three -parameter logistic Hill equation and applying […]
(§13) concentration was determined using a Tri -Carb liquid scintillation analyzer. […]

hV1aR = target: T4, hV1aR (Homo sapiens, UniProt P37288); assay: Radioligand displacement and saturation binding, membranes of HEK293 cells stably expressing hV1aR, [3H]-VP
T4 construct: expressed in transfected cells
T4 sequence (P37288 whole entry): as the sequence (P37288 whole entry) above
Experimental: as §1, §2, §3, §4, §5, §6, §7, §8, §9, §10, §11
Specific binding was determined by […]
as §12, §13

hV2R = target: T5, hV2R (Homo sapiens, UniProt P30518); assay: Radioligand displacement and saturation binding, membranes of HEK293 cells stably expressing hV2R, [3H]-VP
T5 construct: expressed in transfected cells; membrane preparation
T5 sequence (P30518 whole entry): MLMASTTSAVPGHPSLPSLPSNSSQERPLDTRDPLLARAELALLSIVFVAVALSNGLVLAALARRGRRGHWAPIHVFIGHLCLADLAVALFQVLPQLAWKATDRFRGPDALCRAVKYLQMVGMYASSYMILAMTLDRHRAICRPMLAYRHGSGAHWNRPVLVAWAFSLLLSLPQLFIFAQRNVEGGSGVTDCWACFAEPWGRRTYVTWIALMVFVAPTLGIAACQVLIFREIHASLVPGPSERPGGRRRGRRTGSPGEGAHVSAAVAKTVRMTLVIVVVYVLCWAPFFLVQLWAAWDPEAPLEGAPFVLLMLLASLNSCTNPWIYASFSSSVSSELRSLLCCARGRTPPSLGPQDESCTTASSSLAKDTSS
Experimental: as §1, §2, §3, §4, §5, §6, §7, §8, §9, §10, §11
Specific binding was determined by […]
as §12, §13

[8] = tested on: rat embryonic hippocampal neurons; assay: Tracer uptake in primary rat hippocampal neurons; assay type: cell-based; conditions: 100 nM, 1 h; E17.5 neurons cultured 14 days
Experimental: Finally, we evaluated whether tracer (11) is applicable in primary cells endogenously expressing OTR.
Primary UtSMC and hippocampal neuronal cultures.
Muscle Cell Basal Medium 2 (PromoCell), including supplements (PromoCell) and P/S (Gibco) at 37°C and 5%
CO2. Cells were trypsinized with 0.1% Trypsin/EDTA (Gibco) and plated on glass -bottom 96-well plates (CellVis)
at a density of 10,000 cells/well in full growth medium. The next day, cells were stimulated with tracer ( 11), OTA ,
dissociated with flame -polishe d Pasteur pipettes in Hank’s balanced salt solution (HBSS, Gibco). Tissue pieces
were subsequently enzymatically dissociated with 0.1% Trypsin/EDTA (Gibco) in Neurobasal A (NBA, Gibco)
containing 1,000U/mL DNase (Sigma) for 5 min at 37°C. Cells were triturated with flamed Pasteur pipettes,
filtered through a 40 µm nylon mesh ( Thermo Fisher Scientific ), centrifuged at 200 g for 5 min, and washed up to
three times in NBA containing P/S (Gibco), GlutaMax (Gibco) , and B27 supplement (Gibco). Cells were plated at
20,000 cells/well on PDL -coated (Sigma) glass -bottom black 96 -well microscopy plates (Cellvis) and grown at
37°C with 5% CO 2. Half of the medium was replaced every 3 -4 days. After 13 -14 days in vitro , neuronal cultures
were exposed to 100 nM tracer ( 11) for one hour, with or without 30-min pretreatment with 10 µM of the peptide
antagonist OTA. […]

Cc1ccccc1N1CCN(S(=O)(=O)C[C@]23CC[C@H](C[C@@H]2NC(=O)[C@@H](N)CCS(C)(=O)=O)C3(C)C)CC1 [L368,899, reference compound]
IC50 (hOTR [1]): 26 nM | Effect of antagonist pretreatment on tracer (11) uptake (hOTR-GFP in HEK293 cells [2]; 10 µM, 30 min pretreatment): completely prevented tracer (11) uptake

CC[C@H](C)[C@@H]1NC(=O)[C@H](Cc2ccc(O)cc2)NC(=O)CCSSC[C@@H](C(=O)N2CCC[C@H]2C(=O)N[C@@H](CCCNC(=O)CCOCCOCCOCCOCCOCCNC(=O)[C@H](N)CCCCNC(=O)CCCCC[N+]2=C(C=CC=CC=C3N(CC)c4ccc(S(=O)(=O)O)cc4C3(C)C)C(C)(C)c3cc(S(=O)(=O)[O-])ccc32)C(=O)NCC(N)=O)NC(=O)[C@H](CC(N)=O)NC(=O)[C@H](CCC(N)=O)NC1=O [Compound 7, d(Orn)^8OT‐[PEG5‐k^ε‐Cy5s]^8] ([Mpa]YIQNCP[Orn]([PEG5-d(εLys)-X3])G-NH2; disulfide 1-6)
hOTR-GFP internalization (hOTR-GFP in HEK293 cells [2]): significant hOTR‐GFP internalization | Tracer retention after ICC protocols (hOTR-GFP in HEK293 cells [2]): remained present and detectable | Tracer signal after prolonged stimulation (hOTR-GFP in HEK293 cells [2]): Signal intensity was increased

CC[C@H](C)[C@@H]1NC(=O)[C@H](Cc2ccc(O)cc2)NC(=O)CCSSC[C@@H](C(=O)N2CCC[C@H]2C(=O)N[C@@H](CCCNC(=O)CCOCCOCCOCCOCCOCCNC(=O)CCCCC[N+]2=C(C=CC=CC=C3N(CC)c4ccc(S(=O)(=O)O)cc4C3(C)C)C(C)(C)c3cc(S(=O)(=O)[O-])ccc32)C(=O)NCC(N)=O)NC(=O)[C@H](CC(N)=O)NC(=O)[C@H](CCC(N)=O)NC1=O [Compound 3, d(Orn)^8OT‐[PEG5‐Cy5s]^8] ([Mpa]YIQNCP[Orn]([PEG5-X3])G-NH2; disulfide 1-6)
hOTR-GFP internalization (hOTR-GFP in HEK293 cells [2]): significant hOTR‐GFP internalization | Tracer retention after ICC protocols (hOTR-GFP in HEK293 cells [2]): washout after ICC protocols | Tracer signal after prolonged stimulation (hOTR-GFP in HEK293 cells [2]): scarcely detectable

CC[C@H](C)[C@@H]1NC(=O)[C@H](Cc2ccc(O)cc2)NC(=O)CCSSC[C@@H](C(=O)N2CCC[C@H]2C(=O)N[C@@H](CCCNC(=O)[C@@H](CC(=O)O)NC(=O)CCOCCOCCOCCOCCOCCNC(=O)CCCCC[N+]2=C(C=CC=CC=C3N(CC)c4ccc(S(=O)(=O)O)cc4C3(C)C)C(C)(C)c3cc(S(=O)(=O)[O-])ccc32)C(=O)NCC(N)=O)NC(=O)[C@H](CC(N)=O)NC(=O)[C@H](CCC(N)=O)NC1=O [Compound 10, d(Orn)^8OT‐[d‐PEG5‐Cy5s]^8] ([Mpa]YIQNCP[Orn]([dD-PEG5-X3])G-NH2; disulfide 1-6)
Average (apparent) diffusion coefficient (hOTR-GFP in HEK293 cells [3]; 1 nM tracer, HEK293-hOTR-GFP, 50 Hz, tracer bound to hOTR, mean ± SEM): 0.206 ± 0.017 µm^2 s^−1 | Average number of tracks (per cell) (hOTR-GFP in HEK293 cells [3]; HEK293-hOTR-GFP cells, N=9 cells, 3 independent experiments): 4884 ± 1718

CC[C@H](C)[C@@H]1NC(=O)[C@H](Cc2ccc(O)cc2)NC(=O)CCSSC[C@@H](C(=O)N2CCC[C@H]2C(=O)N[C@@H](CCCNC(=O)CCOCCOCCOCCOCCOCCNC(=O)CCOCCOCCOCCOCCOCCNC(=O)[C@H](N)CCCCNC(=O)CCCCC[N+]2=C(C=CC=C3N(CC)c4ccc(S(=O)(=O)O)cc4C3(C)C)C(C)(C)c3cc(S(=O)(=O)[O-])ccc32)C(=O)NCC(N)=O)NC(=O)[C@H](CC(N)=O)NC(=O)[C@H](CCC(N)=O)NC1=O [Compound 9, d(Orn)^8OT‐[PEG5‐PEG5‐k^ε‐Cy3s]^8] ([Mpa]YIQNCP[Orn]([PEG5-PEG5-d(εLys)-X4])G-NH2; disulfide 1-6)
Ki (hOTR [4]; read-out: Ki hOTR): 1.5 ± 0.5 nM

CC[C@H](C)[C@@H]1NC(=O)[C@H](Cc2ccc(O)cc2)NC(=O)CCSSC[C@@H](C(=O)N2CCC[C@H]2C(=O)N[C@@H](CCCNC(=O)CCOCCOCCOCCOCCOCCNC(=O)CCCCC[N+]2=C(C=CC=C3N(CC)c4ccc(S(=O)(=O)[O-])cc4C3(C)C)C(C)(C)c3cc(S(=O)(=O)O)ccc32)C(=O)NCC(N)=O)NC(=O)[C@H](CC(N)=O)NC(=O)[C@H](CCC(N)=O)NC1=O [Compound 4, d(Orn)^8OT‐[PEG5‐Cy3s]^8] ([Mpa]YIQNCP[Orn]([PEG5-X1])G-NH2; disulfide 1-6)
Ki (hOTR [4]; read-out: Ki hOTR): 1.5 ± 0.6 nM

CC[C@H](C)[C@@H]1NC(=O)[C@H](Cc2ccc(O)cc2)NC(=O)CCSSC[C@@H](C(=O)N2CCC[C@H]2C(=O)N[C@@H](CCCNC(=O)[C@H](N)CCCCNC(=O)[C@H](N)CCCCNC(=O)CCCCC[N+]2=C(C=CC=CC=C3N(CC)c4ccc(S(=O)(=O)O)cc4C3(C)C)C(C)(C)c3cc(S(=O)(=O)[O-])ccc32)C(=O)NCC(N)=O)NC(=O)[C@H](CC(N)=O)NC(=O)[C@H](CCC(N)=O)NC1=O [Compound 5] ([Mpa]YIQNCP[Orn]([d(εLys)-d(εLys)-X3])G-NH2; disulfide 1-6)
Concentration from which CREB phosphorylation was observed [5]: ≥ 10 nM | Internalization in parent HEK293 cells [6]: nor was it internalized into the cytoplasm | pCREB induction in parent HEK293 cells [6]: did not affect pCREB induction | Concentration from which tracer accumulation and GFP internalization were observed (hOTR-GFP in HEK293 cells [2]; hOTR-GFP HEK293 cells): ≥ 10 nM

CC[C@H](C)[C@@H]1NC(=O)[C@H](Cc2ccc(O)cc2)NC(=O)CCSSC[C@@H](C(=O)N2CCC[C@H]2C(=O)N[C@@H](CCCNC(=O)CCOCCOCCOCCOCCOCCNC(=O)[C@H](N)CCCCNC(=O)CCCCC[N+]2=C(C=CC=C3N(CC)c4ccc(S(=O)(=O)[O-])cc4C3(C)C)C(C)(C)c3cc(S(=O)(=O)O)ccc32)C(=O)NCC(N)=O)NC(=O)[C@H](CC(N)=O)NC(=O)[C@H](CCC(N)=O)NC1=O [Compound 8, d(Orn)^8OT‐[PEG5‐k^ε‐Cy3s]^8] ([Mpa]YIQNCP[Orn]([PEG5-d(εLys)-X1])G-NH2; disulfide 1-6)
Fluorescent signals and internalization in hV1aR-containing cells [7]: displayed fluorescent signals and internalization | Cy3s signal accumulation in hOTR-expressing cells (hOTR-GFP in HEK293 cells [2]; post ICC, normalized to control): significant concentration‐dependent accumulation

CC[C@H](C)[C@@H]1NC(=O)CCSSC[C@@H](C(=O)N2CCC[C@H]2C(=O)N[C@@H](CCCNC(=O)[C@@H](CC(=O)O)NC(=O)CCOCCOCCOCCOCCOCCNC(=O)[C@H](N)CCCCNC(=O)CCCCC[N+]2=C(C=CC=C3N(CC)c4ccc(S(=O)(=O)[O-])cc4C3(C)C)C(C)(C)c3cc(S(=O)(=O)O)ccc32)C(=O)NCC(N)=O)NC(=O)[C@H](CCC(N)=O)NC(=O)[C@H](Cc2ccc(O)cc2)NC(=O)[C@H](CC(N)=O)NC1=O [Scrambled tracer (SCR), dCINYQCP(Orn)G‐[d‐PEG5‐k^ε‐Cy3s]^8] ([Mpa]INYQCP[Orn]([dD-PEG5-d(εLys)-X1])G-NH2; disulfide 1-6)
Ki (hV1bR): > 10000 nM | Ki (hV1aR): > 10000 nM | hOTR-GFP internalization (hOTR-GFP in HEK293 cells [2]): did not induce hOTR‐GFP internalization or accumulate in the cell cytoplasm | Ki (hV2R): > 10000 nM | Ki (hOTR [4]; Ki hOTR): > 10000 nM | Tracer uptake in rat hippocampal neurons [8]: not taken up by neurons
